This is an account of results in patent US9840478B2 (MERCK SHARP & DOHME CORP., priority 2013, dated 2017).

The subject of one experiment is HIV-1 (H9IIIB strain). Nature of the experiment: Cell-based HIV infection assay using a reporter (Cell-Based), MT4-GFP cells. As to conditions: Human immunodeficiency virus 1, MT4-GFP cells infected with HIV-1 H9IIIB; 50% normal human serum; mean of at least two independent experiments; read-out: Cell-based IP. The gist of the method: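 IC50 from 4-parameter dose-response of % viral growth inhibition, using the 48 h/24 h infected-cell ratio scaled between DMSO and a protease/integrase/NNRTI triple-drug control. Assay used MT4 cells with HIV-LTR-GFP reporter, pre-infected 24 h with HIV-1 H9IIIB, in 50% normal human serum.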
On to `COC(=O)N[C@H](C(=O)Nc1cccc(F)c1CC[C@H]1CNC[C@@H](C)N1S(=O)(=O)c1ccccc1)[C@@H](c1ccc(Cl)cc1)C1CCOCC1` [Example 117, (βR)-4-chloro-N-(3-fluoro-2-{2-[(2S,6R)-6-methyl-1-(phenylsulfonyl)piperazin-2-yl]ethyl}phenyl)-Nα-(methoxycarbonyl)-β-(tetrahydro-2H-pyran-4-yl)-L-phenylalaninamide], for which the IC50 is 9.3 nM.
The same measure, in the same setting: as for `COC(=O)N[C@H](C(=O)Nc1cncc(F)c1CC[C@H]1CNC[C@@H](C)N1S(=O)(=O)C1CC1)[C@@H](c1ccc(F)cc1)c1cc(F)cc(F)c1` [Example 211, (βS)-N-(4-{2-[(2S,6R)-1-(cyclopropylsulfonyl)-6-methylpiperazin-2-yl]ethyl}-5-fluoropyridin-3-yl)-β-(3,5-difluorophenyl)-4-fluoro-Nα-(methoxycarbonyl)-L-phenylalaninamide], the figure is 16 nM; as for `C[C@H]1CNC[C@H](CCc2c(F)cccc2NC(=O)[C@@H](N)[C@H](c2cncc(F)c2)c2cccc(Cl)c2)N1S(=O)(=O)c1ccccc1` [Example 219, (βS)-3-chloro-N-(3-fluoro-2-{2-[(2S,6S)-6-methyl-1-(phenylsulfonyl)piperazin-2-yl]ethyl}phenyl)-β-(5-fluoropyridin-3-yl)-L-phenylalaninamide], 25 nM; as for `C[C@H]1CNC[C@H](CCc2c(F)cccc2NC(=O)[C@@H](N)[C@H](c2cccc(F)c2)c2cccc(Cl)c2)N1S(=O)(=O)C1CC1` [Example 176, (βR)-3-chloro-N-(2-{2-[(2S,6S)-1-(cyclopropylsulfonyl)-6-methylpiperazin-2-yl]ethyl}-3-fluorophenyl)-β-(3-fluorophenyl)-L-phenylalaninamide], 190 nM.
In the case of `COC(=O)N[C@H](C(=O)Nc1cccc(F)c1CC[C@H]1CNC[C@H](C)N1S(=O)(=O)c1ccc(OC)cc1)[C@@H](c1ccc(Cl)cc1)C(C)C` [Example 125, (βR)-4-chloro-N-[3-fluoro-2-(2-{(2S,6S)-1-[(4-methoxyphenyl)sulfonyl]-6-methylpiperazin-2-yl}ethyl)phenyl]-Nα-(methoxycarbonyl)-β-(1-methylethyl)-L-phenylalaninamide], the IC50 came to 18 nM.
Turning to `N[C@H](C(=O)Nc1cccc(F)c1CC[C@H]1CNCCN1S(=O)(=O)c1ccccc1)[C@H](CCC1CCOCC1)c1ccc(Cl)c(F)c1` [Example 72, (βR)-4-chloro-3-fluoro-N-(3-fluoro-2-{2-[(2S)-1-(phenylsulfonyl)piperazin-2-yl]ethyl}phenyl)-β-[2-(tetrahydro-2H-pyran-4-yl)ethyl]-L-phenylalaninamide], the IC50 came to 21 nM.
In the case of `COc1ccc([C@H](c2ccc(Cl)cc2)[C@H](N)C(=O)Nc2cccc(F)c2CC[C@H]2CNC[C@@H](C)N2S(=O)(=O)c2ccccc2)cn1` [Example 14, (βS)-4-chloro-N-(3-fluoro-2-{2-[(2S,6R)-6-methyl-1-(phenylsulfonyl)piperazin-2-yl]ethyl}phenyl)-β-(6-methoxypyridin-3-yl)-L-phenylalaninamide], the IC50 stood at 18 nM.
Regarding `COC(=O)N[C@H](C(=O)Nc1cccc(F)c1CC[C@H]1CNC[C@H](C)N1S(=O)(=O)c1ccccc1)[C@@H](c1ccc(F)cc1)C1CCOCC1` [Example 7, Methyl ((2S,3R)-1-((3-fluoro-2-(2-((2S,6S)-6-methyl-1-(phenylsulfonyl)piperazin-2-yl)ethyl)phenyl)amino)-3-(4-fluorophenyl)-1-oxo-3-(tetrahydro-2H-pyran-4-yl)propan-2-yl)carbamate], the IC50 amounted to 6 nM.
As to `COc1ccccc1S(=O)(=O)N1[C@@H](CCc2c(F)cccc2NC(=O)[C@@H](N)[C@@H](c2ccc(F)cc2)c2cc(F)cc(F)c2)CNC[C@H]1C` [Example 239, (βS)-β-(3,5-difluorophenyl)-4-fluoro-N-[3-fluoro-2-(2-{(2S,6R)-1-[(2-methoxyphenyl)sulfonyl]-6-methylpiperazin-2-yl}ethyl)phenyl]-L-phenylalaninamide], the IC50 came to 130 nM.
On the same count and under the same terms, the result for `O=C(C[C@@H](c1ccc(F)cc1)c1cc(F)cc(F)c1)Nc1cncc(F)c1CC[C@H]1CNCCN1S(=O)(=O)c1ccc(-c2ccccn2)s1` [Example 311, (3S)-3-(3,5-difluorophenyl)-3-(4-fluorophenyl)-N-[5-fluoro-4-(2-{(2S)-1-[(5-pyridin-2-ylthiophen-2-yl)sulfonyl]piperazin-2-yl}ethyl)pyridin-3-yl]propanamide] reads 20 nM.
In the case of `CC(C)NS(=O)(=O)N1CCNC[C@@H]1CCc1c(F)cncc1NC(=O)C[C@@H](c1ccc(F)cc1)c1cc(F)cc(F)c1` [Example 324, (3S)-3-(3,5-difluorophenyl)-N-[5-fluoro-4-(2-{(2S)-1-[(1-methylethyl)sulfamoyl]piperazin-2-yl}ethyl)pyridin-3-yl]-3-(4-fluorophenyl)propanamide], the IC50 came to 40 nM.
Same read-out and setting: as for `COC(=O)N[C@H](C(=O)Nc1cccc(F)c1CC[C@H]1CNC[C@H](C)N1S(C)(=O)=O)[C@@H](c1ccc(Cl)cc1)c1ccc(OC)nc1` [Example 165, (βS)-4-chloro-N-(3-fluoro-2-{2-[(2S,6S)-6-methyl-1-(methylsulfonyl)piperazin-2-yl]ethyl}phenyl)-Nα-(methoxycarbonyl)-β-(6-methoxypyridin-3-yl)-L-phenylalaninamide], the figure is 17 nM; as for `C[C@@H]1C[C@](c2ccc(Cl)cc2)([C@H](N)C(=O)Nc2cccc(F)c2CC[C@H]2CNC[C@@H](C)N2S(=O)(=O)c2ccccc2)C[C@H](C)O1` [Example 301, (S)-2-amino-2-((2R,4r,6S)-4-(4-chlorophenyl)-2,6-dimethytetrahydro-2H-pyran-4-yl)-N-(3-fluoro-2-(2-((2S,6R)-6-methyl-1-(phenylsulfonyl)piperazin-2-yl)ethyl)phenyl)acetamide], 480 nM; as for `O=C(C[C@@H](c1ccc(F)cc1)c1cc(F)cc(F)c1)Nc1cncc(F)c1CC[C@H]1CNCCN1S(=O)(=O)N1CCC(F)(F)CC1` [Example 330, (3S)-3-(3,5-difluorophenyl)-N-[4-(2-{(2S)-1-[(4,4-difluoropiperidin-1-yl)sulfonyl]piperazin-2-yl}ethyl)-5-fluoropyridin-3-yl]-3-(4-fluorophenyl)propanamide], 43 nM.
`COC(=O)N[C@H](C(=O)Nc1cccc(F)c1CC[C@H]1CNC[C@@H](C)N1S(=O)(=O)c1ccccc1)C1(c2cc(F)cc(F)c2)CCOCC1` [Example 285, methyl {(1S)-1-[4-{3,5-difluorophenyl)tetrahydro-2H-pyran-4-yl]-2-[(3-fluoro-2-{2-[(2S,6R)-6-methyl-1-(phenylsulfonyl)piperazin-2-yl]ethyl}phenyl)amino]-2-oxoethyl}carbamate]: the IC50 was found to be 29 nM.
The same measure, in the same setting: as for `COC(=O)N[C@H](C(=O)Nc1cccc(F)c1CC[C@H]1CNC[C@H](C)N1S(=O)(=O)c1ccccc1)[C@H](c1cccc(F)c1)c1cccc(Cl)c1` [Example 155, (βR)-3-chloro-N-(3-fluoro-2-{2-[(2S,6S)-6-methyl-1-(phenylsulfonyl)piperazin-2-yl]ethyl}phenyl)-β-(3-fluorophenyl)-Nα-(methoxycarbonyl)-L-phenylalaninamide], the figure is 67 nM; as for `C[C@H]1CNC[C@H](CCc2c(F)cncc2NC(=O)[C@@H](N)[C@@H](c2ccc(F)cc2)c2cc(F)cc(F)c2)N1S(=O)(=O)c1ccccc1` [Example 105, (βS)-β-(3,5-difluorophenyl)-4-fluoro-N-(5-fluoro-4-{2-[(2S,6S)-6-methyl-1-(phenylsulfonyl)piperazin-2-yl]ethyl}pyridin-3-yl)-L-phenylalaninamide], 19 nM.
The same measure, in the same setting: the result for `COC(=O)N[C@H](C(=O)Nc1cccc(F)c1CC[C@H]1CNC[C@@H](C)N1S(=O)(=O)c1ccccc1)C(c1cccc(F)c1)c1cccc(F)c1` [Example 134, 3-fluoro-N-(3-fluoro-2-{2-[(2S,6R)-6-methyl-1-(phenylsulfonyl)piperazin-2-yl]ethyl}phenyl)-β-(3-fluorophenyl)-Nα-(methoxycarbonyl)-L-phenylalaninamide] reads 63 nM; that for `C[C@H]1CNC[C@H](CCc2c(F)cccc2NC(=O)[C@@H](N)[C@@H](c2ccc(F)cc2)C2CCOCC2)N1S(=O)(=O)C1CC1` [Example 114, (βR)-N-(2-{2-[(2S,6S)-1-(cyclopropylsulfonyl)-6-methylpiperazin-2-yl]ethyl}-3-fluorophenyl)-4-fluoro-β-(tetrahydro-2H-pyran-4-yl)-L-phenylalaninamide], 100 nM.
Same read-out and setting: as for `COC(=O)N[C@H](C(=O)Nc1cccc(F)c1CC[C@H]1CNC[C@H](C)N1S(=O)(=O)C1CC1)[C@@H](c1ccc(Cl)cc1)c1ccc(OC)nc1` [Example 151, (βS)-4-chloro-N-(2-{2-[(2S,6S)-1-(cyclopropylsulfonyl)-6-methylpiperazin-2-yl]ethyl}-3-fluorophenyl)-Nα-(methoxycarbonyl)-β-(6-methoxypyridin-3-yl)-L-phenylalaninamide], the figure is 17 nM; as for `COC(=O)N[C@H](C(=O)Nc1cccc(F)c1CC[C@H]1CNCCN1S(=O)(=O)c1ccccc1)[C@@H](c1ccc(Cl)cc1)c1ccc(OC)nc1` [Example 5, Methyl ((1S,2S)-1-(4-chlorophenyl)-3-((3-fluoro-2-(2((S)-1-(phenylsulfonyl)piperizin-2-yl)ethyl)phenyl)amino)-1-(6-methoxypyridin-3-yl)-3-oxopropan-2-yl)carbamate], 5.9 nM.

Still in this experiment, the particulars now being: MT4-GFP cells infected with HIV-1 H9IIIB; 50% normal human serum; mean of at least two independent experiments; read-out: Cell-based IP.
Consider `CC(C)OCC1CNC[C@H](CCc2c(F)cccc2NC(=O)[C@@H](N)[C@@H](c2ccc(F)cc2)c2cc(F)cc(F)c2)N1S(=O)(=O)C1CC1` (stereo partly drawn) [Example 256, (βS)-N-[2-(2-{(2S)-1-(cyclopropylsulfonyl)-6-[(1-methylethoxy)methyl]piperazin-2-yl}ethyl)-3-fluorophenyl]-β-(3,5-difluorophenyl)-4-fluoro-L-phenylalaninamide], for which the IC50 was 73 nM.
